Source: patent US5760050A, “Antipsychotic method utilizing certain tetrahydrochromeno[3,4-c]pyridin-5-ones” (Warner-Lambert Company, priority 1997, dated 1998)
Structures can show the parent of a compound that is named as a salt.

Columns and labels:
[1] = target: T1, human D3 receptor (Homo sapiens, UniProt P35462); experiment: inhibition of [^3 H]spiperone binding to the human D3 receptor; details: read-out: Dopamine Receptor Binding (Ki, nM) D3
T1 construct: expressed in transfected cells
Method: (§1) Compounds of Formula I were tested for their ability to bind to dopamine receptors as measured by their inhibition of [^3 H]spiperone binding to the human D2 and D3 receptors in an assay described by MacKenzie R. G., VanLeeuwen D., Pugsley T. A., et al., "Characterization of the human dopamine D3 receptor expressed in transfected cell lines." Eur. J. Pharmacol.-Mol. Pharmacol., 1994;266:79-85; for the human D4 dopamine receptor in an assay described by Pugsley T. A., David M. D., Akunne H. C., et al., "CI-1007, a dopamine partial agonist and potential antipsychotic agent. I. Neurochemical Effects." J. Pharmacol. Exp. Ther., 1995;274:898-911; and for ability to block the action of an agonist in a [^3 H]thymidine incorporation assay described by Lajiness N. E., Chio C. L., Huff R. M., "D2 dopamine receptor stimulation of mitogenesis in transfected Chinese hamster ovary cells: relationship to dopamine stimulation of tyrosine phosphorylations." J. Pharmacol. Exp. Ther., 1993;267:1573-81. This test determines the agonist/antagonist character of a compound by measuring [^3 H]thymidine uptake in Chinese hamster ovary (CHO) pro-5 cells expressing the dopamine D4 receptor. Agonists, such as quinpirole, promote cell growth and subsequent [^3 H]thymidine incorporation, while antagonists block the action of agonists. […] The above articles are incorporated herein by reference for their assay methodology.

[2] = target: T2, human D4 dopamine receptor (Homo sapiens, UniProt P21917); experiment: inhibition of [^3 H]spiperone binding to the human D4 dopamine receptor
T2 construct: expressed in transfected cells
T2 sequence (P21917 1-419): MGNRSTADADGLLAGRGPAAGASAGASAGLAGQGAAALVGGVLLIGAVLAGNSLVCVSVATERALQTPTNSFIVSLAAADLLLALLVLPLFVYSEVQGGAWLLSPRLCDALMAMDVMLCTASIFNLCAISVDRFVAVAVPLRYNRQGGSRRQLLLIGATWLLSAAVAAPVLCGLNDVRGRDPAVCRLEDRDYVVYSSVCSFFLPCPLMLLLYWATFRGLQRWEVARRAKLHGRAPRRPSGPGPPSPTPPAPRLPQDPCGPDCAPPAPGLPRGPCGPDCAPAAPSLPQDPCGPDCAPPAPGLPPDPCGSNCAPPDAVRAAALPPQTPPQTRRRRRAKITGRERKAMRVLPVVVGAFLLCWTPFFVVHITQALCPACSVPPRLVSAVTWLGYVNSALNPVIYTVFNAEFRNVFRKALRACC
Method: as §1

[3] = target: T3, human D2 receptor (Homo sapiens, UniProt P14416); experiment: inhibition of [^3 H]spiperone binding to the human D2 receptor; details: read-out: Dopamine Receptor Binding (Ki, nM) D2
T3 construct: expressed in transfected cells
Method: as §1

[4] = system: schizophrenia; details: in vivo; cited from earlier work
[5] = system: dopamine D4 receptor; details: D4 vs D2; cited from earlier work

T3 sequence (P14416 whole entry): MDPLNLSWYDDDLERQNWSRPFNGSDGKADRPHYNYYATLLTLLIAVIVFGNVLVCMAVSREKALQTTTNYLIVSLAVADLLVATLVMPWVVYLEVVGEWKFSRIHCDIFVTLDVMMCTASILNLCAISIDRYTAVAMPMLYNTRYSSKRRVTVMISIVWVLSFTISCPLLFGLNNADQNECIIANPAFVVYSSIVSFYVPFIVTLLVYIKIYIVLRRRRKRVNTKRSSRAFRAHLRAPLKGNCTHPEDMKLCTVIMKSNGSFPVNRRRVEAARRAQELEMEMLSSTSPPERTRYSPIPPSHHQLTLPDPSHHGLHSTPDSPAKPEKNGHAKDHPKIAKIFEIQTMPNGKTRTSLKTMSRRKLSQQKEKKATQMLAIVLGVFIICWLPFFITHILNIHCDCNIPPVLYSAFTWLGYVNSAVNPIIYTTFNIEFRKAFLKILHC
T1 sequence (P35462 whole entry): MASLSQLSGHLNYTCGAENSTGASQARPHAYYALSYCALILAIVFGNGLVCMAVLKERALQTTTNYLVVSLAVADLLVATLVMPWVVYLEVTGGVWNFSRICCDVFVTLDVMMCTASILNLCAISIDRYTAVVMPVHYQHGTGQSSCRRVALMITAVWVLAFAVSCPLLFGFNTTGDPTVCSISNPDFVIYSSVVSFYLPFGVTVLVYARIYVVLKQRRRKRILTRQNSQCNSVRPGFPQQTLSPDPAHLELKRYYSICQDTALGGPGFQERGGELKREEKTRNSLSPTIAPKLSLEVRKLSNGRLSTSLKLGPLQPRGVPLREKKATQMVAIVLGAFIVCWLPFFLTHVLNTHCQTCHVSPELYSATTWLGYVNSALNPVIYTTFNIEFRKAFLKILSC

COc1ccc2c3c(c(=O)oc2c1)CN(Cc1ccccc1)CC3 [Example 1, 3-Benzyl-8-methoxy-1,2,3,4-tetrahydro-chromeno[3,4-c]-pyridin-5-one]
Ki [1]: 60 nM | Ki [2]: 1.5 nM

COc1ccc2c3c(c(=O)oc2c1)CN(Cc1ccc(C)cc1)CC3 [Example 3, 8-Methoxy-3-(4-methyl-benzyl)-1,2,3,4-tetrahydro-chromeno[3,4-c]pyridin-5-one]
Ki [1]: 491 nM | Ki [2]: 2.6 nM

COc1ccc2c3c(c(=O)oc2c1)CN(Cc1ccc(Cl)c(Cl)c1)CC3 [Example 4, 3-(3,4-Dichloro-benzyl)-8-methoxy-1,2,3,4-tetrahydro-chromeno[3,4-c]pyridin-5-one]
Ki [2]: 60.9 nM

COc1ccc2c3c(c(=O)oc2c1)CN(Cc1ccc([N+](=O)[O-])cc1)CC3 [Example 5, 8-Methoxy-3-(4-nitro-benzyl)-1,2,3,4-tetrahydro-chromeno[3,4-c]pyridin-5-one]
Ki [2]: 7.53 nM | Ki [3]: > 5880 nM

COc1cc2oc(=O)c3c(c2cc1OC)CCN(Cc1ccccc1)C3 [Example 6, 3-Benzyl-8,9-dimethoxy-1,2,3,4-tetrahydro-chromeno[3,4-c]pyridin-5-one]
Ki [2]: 59 nM

Cc1cc2oc(=O)c3c(c2cc1O)CCN(Cc1ccccc1)C3 [Example 7, 3-Benzyl-9-hydroxy-8-methyl-1,2,3,4-tetrahydro-chromeno[3,4-c]pyridin-5-onehydrochloride]
Ki [1]: 295 nM | Ki [2]: 8.01 nM | Ki [3]: 1900 nM

Cc1c(O)cc2oc(=O)c3c(c2c1O)CCN(Cc1ccccc1)C3 [Example 8, 3-Benzyl-8,10-dihydroxy-9-methyl-1,2,3,4-tetrahydro-chromeno[3,4-c]pyridin-5-one hydrochloride]
Ki [2]: 44.3 nM

COc1ccc2c3c(c(=O)oc2c1)CN(Cc1ccc(Cl)cc1)CC3 [Example 9, 3-(4-Chloro-benzyl)-8-methoxy-1,2,3,4-tetrahydro-chromeno[3,4-c]pyridin-5-one]
Ki [1]: 11700 nM | Ki [2]: 7.3 nM | Ki [3]: > 5880 nM

COc1ccc2c3c(c(=O)oc2c1)CN(Cc1ccncc1)CC3 [Example 10, 8-Methoxy-3-pyridin-4-ylmethyl-1,2,3,4-tetrahydro-chromeno[3,4-c]pyridin-5-one]
Ki [2]: 73.5 nM

COc1ccc2c3c(c(=O)oc2c1)CN(Cc1ccnc2ccccc12)CC3 [Example 11, 8-Methoxy-3-quinolin-4-ylmethyl-1,2,3,4-tetrahydro-chromeno[3,4-c]pyridin-5-one]
Ki [2]: 34.3 nM

COc1ccc2c3c(c(=O)oc2c1)CN(Cc1cc(OC)c(OC)c(OC)c1)CC3 [Example 12, 8-Methoxy-3-(3,4,5-trimethoxy-benzyl)-1,2,3,4-tetrahydro-chromeno[3,4-c]pyridin-5-one]
Ki [1]: 3670 nM | Ki [2]: 21.3 nM | Ki [3]: 2670 nM

COc1ccc2c3c(c(=O)oc2c1)CN(Cc1ccc(C(F)(F)F)cc1)CC3 [Example 13, 8-Methoxy-3-(4-trifluoromethyl-benzyl)-1,2,3,4-tetrahydro-chromeno[3,4-c]pyridin-5-one]
Ki [1]: 966 nM | Ki [2]: 8.18 nM

COc1ccc(CN2CCc3c(c(=O)oc4cc(OC)ccc34)C2)cc1 [Example 14, 8-Methoxy-3-(4-methoxy-benzyl)-1,2,3,4-tetrahydro-chromeno[3,4-c]pyridin-5-one]
Ki [2]: 84.3 nM

COc1ccc2c3c(c(=O)oc2c1)CN(Cc1cccc(Cl)c1)CC3 [Example 15, 3-(3-Chloro-benzyl)-8-methoxy-1,2,3,4-tetrahydro-chromeno[3,4-c]pyridin-5-one]
Ki [1]: 2630 nM | Ki [2]: 17.2 nM

COc1ccc2c3c(c(=O)oc2c1)CN(Cc1ccccc1Cl)CC3 [Example 16, 3-(2-Chloro-benzyl)-8-methoxy-1,2,3,4-tetrahydro-chromeno[3,4-c]pyridin-5-one]
Ki [1]: 2610 nM | Ki [2]: 33.9 nM | Ki [3]: > 5880 nM

Cc1ccc2c3c(c(=O)oc2c1)CN(Cc1ccccc1)CC3 [Example 17, 3-Benzyl-8-methyl-1,2,3,4-tetrahydro-chromeno[3,4-c]pyridin-5-one]
Ki [1]: 338 nM | Ki [2]: 3.59 nM

COc1ccc2c3c(c(=O)oc2c1)CN(Cc1cccnc1)CC3 [Example 18, 8-Methoxy-3-pyridin-3-ylmethyl-1,2,3,4-tetrahydro-chromeno[3,4-c]pyridin-5-one]
Ki [2]: 21.3 nM | Ki [3]: 3980 nM

COc1ccc2c3c(c(=O)oc2c1)CN(Cc1ccccn1)CC3 [Example 19, 8-Methoxy-3-pyridin-2-ylmethyl-1,2,3,4-tetrahydro-chromeno[3,4-c]pyridin-5-one]
Ki [2]: 48 nM

Cc1ccc2c3c(c(=O)oc2c1)CN(Cc1ccc(Cl)cc1)CC3 [Example 20, 3-(4-Chloro-benzyl)-8-methyl-1,2,3,4-tetrahydro-chromeno[3,4-c]pyridin-5-one]
Ki [2]: 10.6 nM

COc1cc2oc(=O)c3c(c2cc1OC)CCN(Cc1ccc(Cl)cc1)C3 [Example 21, 3-(4-Chloro-benzyl)-8,9-dimethoxy-1,2,3,4-tetrahydro-chromeno[3,4-c]pyridin-5-one]
Ki [2]: 8.46 nM | Ki [3]: > 5880 nM

COc1ccc2c3c(c(=O)oc2c1)CN(CCc1ccccc1)CC3 [Example 22, 8-Methoxy-3-phenethyl-1,2,3,4-tetrahydro-chromeno[3,4-c]pyridin-5-one]
Ki [1]: 591 nM | Ki [2]: 6.87 nM | Ki [3]: > 5880 nM

COc1cc2oc(=O)c3c(c2cc1OC)CCN(CCc1ccccc1)C3 [Example 23, 8,9-Dimethoxy-3-phenethyl-1,2,3,4-tetrahydro-chromeno[3,4-c]pyridin-5-one hydrochloride]
Ki [2]: 32.6 nM

COc1ccc2c3c(c(=O)oc2c1OC)CN(Cc1ccccc1)CC3 [Example 24, 3-Benzyl-7,8-dimethoxy-1,2,3,4-tetrahydro-chromeno[3,4-c]pyridin-5-one]
Ki [2]: 16.2 nM

CN1CCN(C2=Nc3cc(Cl)ccc3Nc3ccccc32)CC1 [clozapine]
improvement of positive and negative symptoms of schizophrenia [4]: improves both the positive and negative symptoms of schizophrenia | incidence of extrapyramidal side effects [4]: low incidence of extrapyramidal side effects | higher affinity for the dopamine D4 receptor than for the D2 receptor [5]: 10 fold
